≈ marks a conversion by molar mass, not a printed value.
Legend:
Assay type in all cases: physicochemical
[1] = Saturation solubility experiments; settings: water, 24 hours stirring after ultrasonic treatment
Procedure: Defined amounts of in each case about 14 to 25 mg of X-ray amorphous or crystalline ciclesonide were weighed into a conical Erlenmeyer flask equipped with a rubber stopper (n=3). 100 ml of water (Millipore quality. ELIX 3. Gradient A 10, pH 5.92-6.00) were added and 30 minutes of ultrasonic treatment was applied to the samples. Afterwards the samples were stirred in the dark for 24 hours at 37° C. in a water bath. After the desired stirring time, each sample was filtered through a 0.2 μm membrane filter (Schleicher & Schuell, RC 0.2 μm Spartan 30/A) and concentrated on a Sep-Pak cartridge (Waters Sep-Pak cartridge C18, WAT051910). Then the cartridge was eluted with ethanol (gradient grade, Merck). The ciclesonide in the ethanol solution was then quantified by HPLC (LaChrom®-HPLC System Series 7000, column: Zorbax SB phenyl, eluent: water/ethanol 38%: 62% (v/v) isocratic, column temperature: 60° C., injection volume: 50 μL, UV-detection at 243 nm) against an external standard.

[2] = Dissolution experiments (dissolution kinetics in water)
Procedure: For each timepoint (5 min, 10 min, 20 min, 35 min, 60 min and 1440 min) of the dissolution experiment, three samples each of X-ray amorphous and crystalline ciclesonide were prepared by weighing a defined amount of in each case about 15 mg into a 250 ml conical wide-necked Erlenmeyer flask and stirring (850 rpm, glass coated magnetic stir bar, having a length of 2.4 cm and a diameter of 0.59 cm) the samples at 37° C. in 100 ml water (Millipore quality, ELIX 3, Gradient A 10, pH 5.92-6.00). The moment of the addition of water was defined as t0. The tempering of the samples was performed using an air bath. After the desired stirring time, the complete samples were filtered through a 0.2 μm membrane filter (Schleicher & Schuell, RC 0.2 μm Spartan 30/A) and concentrated on a Sep-Pak cartridge (Waters Sep-Pak cartridge C18, WAT051910). The cartridge was then eluted with ethanol (gradient grade, Merck). The ciclesonide in the ethanol solution was then quantified by HPLC (LaChrom®-HPLC System Series 7000, column: Zorbax SB phenyl, eluent: water/ethanol 38%: 62% (v/v) isocratic, column temperature: 60° C., injection volume: 50 μL, UV-detection at 243 nm) against an external standard.

[3] = Stability under elevated pressure (recrystallization); settings: pressure of up to 2.500 for 5 min
Text: Such a stability against pressure is particularly desirable when a pharmaceutical agent is used for preparation of solid pharmaceutical compositions such as tablets or granules.

Hygroscopicity = assay: Hygroscopicity

## CC(C)C(=O)OCC(=O)[C@@]12OC(C3CCCCC3)O[C@@H]1CC1[C@@H]3CCC4=CC(=O)C=C[C@]4(C)[C@H]3[C@@H](O)C[C@@]12C (stereo partly drawn) [crystalline ciclesonide, 16,17-[(Cyclohexyl-methylene)bis(oxy)]-11-hydroxy-21-(2-methyl-1-oxopropoxy)-pregna-1,4-diene-3,20-dione[11β,16α], reference compound]
[1]; 37 °C, pH 6, water, thermodynamic from solid
  solubility at 24 h: ~0.091 µg/mL (≈ 0.168 µM)
[2]; pH 6, thermodynamic from solid, 37° C., after 1 hour
  solubility at 1 h: ~0.05 µg/mL (≈ 0.0925 µM)

## CC(C)C(=O)OCC(=O)[C@@]12OC(C3CCCCC3)O[C@@H]1CC1[C@@H]3CCC4=CC(=O)C=C[C@]4(C)[C@H]3[C@@H](O)C[C@@]12C (stereo partly drawn) [amorphous ciclesonide, 16,17-[(Cyclohexyl-methylene)bis(oxy)]-11-hydroxy-21-(2-methyl-1-oxopropoxy)-pregna-1,4-diene-3,20-dione[11β,16α]]
[3]
  recrystallization under pressure: did not show any signs of recrystallization
[1]; 37° C.
  saturation solubility: 0.0916 ± 0.0052 µg/mL
[2]; 37° C., after 20 minutes
  concentration of dissolved ingredient after 20 minutes: 340 ng/mL
[2]; 37° C., after 24 hours
  concentration of dissolved ciclesonide after 24 hours: 105 ng/mL
[2]; 37° C., within 5 minutes
  concentration of dissolved ingredient within 5 minutes: 290 ng/mL
[2]; after 1 hour, amorphous vs crystalline
  concentration of dissolved ingredient relative to crystalline ciclesonide after 1 hour: about sevenfold
Hygroscopicity
  hygroscopicity: not hygroscopic

Source: patent US20100120737A1, “Amorphous ciclesonide” (priority 2008, published 2010)
